These results are taken from patent US20230271956A1, “AMIDE DERIVATIVES” (Merck Patent GmbH, priority 2020, published 2023).

One test addresses T1, human rec ACSS2 (Homo sapiens, UniProt Q9NR19).
T1 construct: myc (C); purchased Origene
Description: Biochemical activity ACSS2 assay (AMP-Glo). Conditions: human recombinant ACSS2, AMP-Glo, 180 min at 37° C. Here is the method:
The biochemical activity assay for ACSS2 is based on the detection of released AMP by AMP-Glo ™ Assay kit (Promega, Madison). The assay is run in three steps: the enzymatic reaction in which human rec ACSS2 activates acetate with ATP and Coenzyme A as cosubstrates to acetyI-coA thereby releasing AMP and the detection reaction of AMP by AMP Glo assay in which after the destruction of the residual ATP with AMP Glo reagent 1 produced AMP is converted to ATP that is measured in a luciferase assay system (detection reagent). The ACSS2 activity correlates with the detected luminescence signal.
The assay was performed in Perkin Elmer 384well white Proxiplates in a total volume of 8 µl.
1 nM (fc) C-term myc tagged ACSS2 (human, recombinant, Origene, Rockville, US) and a mixture of 100 µM (fc) ATP, 100 µM (fc) Coenzyme A and 500 µM (fc) sodium acetate were incubated in a total volume of 5 µl (50 mM Hepes, 1 mM Mg-chloride, 150 mM NaCl, 1 mM DTT, 0.01 % (w/v) BSA, 0.3 % DMSO, pH 7.5) in the absence or presence of the test compound (10 dilution concentrations, start conc 30 µM) for 180 min at 37° C. The reaction was stopped and residual ATP destroyed by the addition of 1 µl AMP Glo reagent solution (Promega, Madison, US). After 1 h incubation at room temperature 2 µl of AMP Glo detection reagent was added and the assay was incubated for 0.75 hr at room temperature. The luminescence signal was measured with an Envision multimode reader (Perkin Elmer LAS Germany GmbH) at 700 nm in luminescence mode. The full value used was the inhibitor-free reaction. The pharmacological zero value was generated by addition of ACSS2 inhibitor (Ac-CoA Synthase Inhibitor - CAS 508186-14-9 -Calbiochem) in a final concentration of 5 µM. The inhibitory values (IC50) were determined using the program Assay Analyzer® from GeneData.

The target of a further test is T2, ACSS2 (Homo sapiens, UniProt Q9NR19).
T2 construct: endogenous fatty acid synthesis activity in the human HCT-15 cancer cell line; endogenous in cells; host or cells: HCT-15
T2 sequence (Q9NR19 whole entry): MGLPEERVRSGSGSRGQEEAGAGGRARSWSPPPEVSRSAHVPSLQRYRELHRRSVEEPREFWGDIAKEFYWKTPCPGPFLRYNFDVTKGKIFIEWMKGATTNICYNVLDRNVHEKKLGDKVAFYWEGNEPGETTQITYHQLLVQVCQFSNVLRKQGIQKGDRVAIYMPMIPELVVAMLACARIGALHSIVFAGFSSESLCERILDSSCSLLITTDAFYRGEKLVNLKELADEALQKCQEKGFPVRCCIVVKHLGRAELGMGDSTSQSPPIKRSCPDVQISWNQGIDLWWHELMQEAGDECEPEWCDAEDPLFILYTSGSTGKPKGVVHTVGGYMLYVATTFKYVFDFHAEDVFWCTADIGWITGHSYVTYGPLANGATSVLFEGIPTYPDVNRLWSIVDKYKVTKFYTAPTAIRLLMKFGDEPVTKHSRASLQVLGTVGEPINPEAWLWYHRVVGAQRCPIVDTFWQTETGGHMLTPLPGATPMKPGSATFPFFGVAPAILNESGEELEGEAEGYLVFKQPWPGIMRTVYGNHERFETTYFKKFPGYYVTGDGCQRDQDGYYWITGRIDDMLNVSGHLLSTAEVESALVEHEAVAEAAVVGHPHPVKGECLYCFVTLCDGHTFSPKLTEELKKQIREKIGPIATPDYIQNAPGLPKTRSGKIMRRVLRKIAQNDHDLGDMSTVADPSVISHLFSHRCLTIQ
Description: Cellular assay of 14C acetate incorporation into histones (IC50 ACSS2 cellular histone). The format is cell-based. Conditions: HCT-15 cells. Here is the method: This protocol describes a cellular assay capable to quantify endogenous histone acetylation activity in the human HCT-15 cancer cell line following the incorporation of extracellularly administered radiolabeled ^14C acetate with a scintillation based read out on acid extracted histones.
HCT-15 cells are trypsinized, washed and suspended in DMEM culture medium supplemented with penicillin/streptomycin (100 U/mL), sodium pyruvate (1 mM), and 10% FBS
Compounds serial dilutions are prepared in 96-well V-bottom microplate from 10 mM stock solutions in DMSO. From these dilutions 0.5 µl are transferred to a fresh plate including pure DMSO as negative control. The dilutions are prepared such, that the final concentration in the assay is 1/400 of the concentration in the serial dilution. The final DMSO concentration in the assay is 0.25 %.
The cell suspension is seeded at densities of 2x10^5 cells per 170 µl into individual wells of a 96 well plate each containing 0.5 µl aliquots of compound serial dilutions and are kept for 1h in a cell incubator. To each well 30 µL of a mixture containing 0.5 mCi/mL of ^14C-acetate with full medium are added. Then, the wells are incubated for 3 hrs in the cell incubator.
Further steps of the procedure should be conducted on ice or instrumentations precooled to 4° C. Cells are sedimented in the 96-well V-bottom microplate by centrifugation (Eppendorf 5804 R) at 1200 rpm for 5 min. The supernatant is removed and the cells are washed twice with 200µL of PBS-NaB (5 mM sodium butyrate) buffer by iterative resuspension and centrifugation. Finally, the cells are resuspended in 50 µL of TEB (PBS-NaB + 0.5 % Triton X-100) and left on ice for 10 minutes. After centrifugation at 2300 rpm for 10 minutes at 4° C. the supernatant is removed, the remaining pellet is suspended in 50 µL of 0.2 M HCl and incubated over night at 4° C. After incubation the well plate is shaken for 2 minutes in a MTP plate shaker set to 1200 rpm and then centrifuged at 3700 rpm for 10 mins. The lysate is carefully aspirated (~43 µL) and transferred into a white MTP plate (Greiner bio-one 65509). 90 µL of Ultima Gold XR scintillation cocktail are added and the plates are sealed with a transparent cover tape before mixing vigorously using plate shaker set to 1200 rpm. Radioactivity from ^14C incorporation in the wells is measured as CPM count in a MicroBeta Trilux luminescence counter.

T1 sequence (Q9NR19 whole entry): as above

As to `CCn1cc(NC(=O)c2cc3c(nc2OC)nc(C(O)(c2ccccc2)c2ccccc2)n3CC)cn1` [Compound 105, 1-ethyl-N-(1-ethyl-1 H-pyrazol-4-yl)-2-(hydroxydiphenylmethyl)-5-methoxy-1 H-imidazo[4,5-b]pyridine-6-carboxamide], the IC50 on human rec ACSS2 and against ACSS2 was 1 to 10 nM each time.
Turning to `CCn1cc(NC(=O)c2cc3c(nc2C)nc(C(O)(c2ccccc2)c2ccccc2)n3CC)cn1` [Compound 109, 1-ethyl-N-(1-ethyl-1H-pyrazol-4-yl)-2-(hydroxydiphenylmethyl)-5-methyl-1H-imidazo[4,5-b]pyridine-6-carboxamide], the 50% inhibitory concentration (IC50) on human rec ACSS2 and at ACSS2 was 1 to 10 nM throughout.
`CCn1cc(NC(=O)c2cnc3nc(C(O)(c4ccccc4F)c4ccccc4F)n(CC)c3c2)cn1` [Compound 112, 2-[bis(2-fluorophenyl)(hydroxy)methyl]-1-ethyl-N-(1-ethyl-1H-pyrazol-4-yl)-1H-imidazo[4,5-b]pyridine-6-carboxamide]: the concentration for half-maximal inhibition (IC50) on human rec ACSS2 and against ACSS2 was 10 to 100 nM each time.
With `CCn1cnc(NC(=O)c2cc3c(nc2C)nc(C(O)(c2ccccc2F)c2ccc(OC(F)F)cc2F)n3CC)n1` (single isomer, unassigned) [Compound 95], the IC50 on human rec ACSS2 and against ACSS2 was 10 to 100 nM each time.
Turning to `CCn1cc(NC(=O)c2cc3c(nc2OC)nc(C(O)(c2ccc(OC(F)F)cc2)c2ccccc2F)n3CC)cn1` (racemic) [Compound 88, 2-{[4-(difluoromethoxy)phenyl](2-fluorophenyl)hydroxymethyl}-1-ethyl-N-(1-ethyl-1H-pyrazol-4-yl)-5-methoxy-1H-imidazo[4,5-b]pyridine-6-carboxamide], the half-maximal inhibitory concentration (IC50) on human rec ACSS2 and against ACSS2 was 10 to 100 nM each time.
In the case of `CCn1cnc(NC(=O)c2cc3c(nc2OC)nc(C(O)(c2ccc(OC(F)F)cc2)c2ccccc2F)n3CC)n1` (racemic) [Compound 87, 2-{[4-(difluoromethoxy)phenyl](2-fluorophenyl)hydroxymethyl}-1-ethyl-N-(1-ethyl-1H-1,2,4-triazol-3-yl)-5-methoxy-1H-imidazo[4,5-b]pyridine-6-carboxamide], the concentration for half-maximal inhibition (IC50) at human rec ACSS2 and against ACSS2 was 1 to 10 nM each time.
Regarding `CCn1cc(NC(=O)c2cc3c(nc2OC)nc(C(O)(c2ccccc2)c2ccc(OC(F)F)cc2F)n3CC)cn1` (racemic) [Compound 79, 2-{[4-(difluoromethoxy)-2-fluorophenyl](hydroxy)phenylmethyl}-1-ethyl-N-(1-ethyl-1H-pyrazol-4-yl)-5-methoxy-1H-imidazo[4,5-b]pyridine-6-carboxamide], the results for the half-inhibitory concentration (IC50) at human rec ACSS2 and against ACSS2 were 10 to 100 nM and 1 to 10 nM, respectively.
Take `CCn1cc(NC(=O)c2cnc3nc(C(O)(c4ccccc4)c4ccccc4)n(CC)c3c2)cn1` [Compound 113, 1-ethyl-N-(1-ethyl-1H-pyrazol-4-yl)-2-(hydroxydiphenylmethyl)-1H-imidazo[4,5-b]pyridine-6-carboxamide]: the IC50 on human rec ACSS2 and against ACSS2 was 10 to 100 nM throughout.
As for `CCn1cnc(NC(=O)c2cc3c(nc2OC)nc(C(O)(c2ccccc2)c2nccs2)n3CC)n1` (racemic) [Compound 44, 1-ethyl-N-(1-ethyl-1H-1,2,4-triazol-3-yl)-2-[hydroxy(phenyl)(1,3-thiazol-2-yl)methyl]-5-methoxy-1H-imidazo[4,5-b]pyridine-6-carboxamide], the IC50 at human rec ACSS2 and on ACSS2 was 1 to 10 nM throughout.
Consider `CCn1cc(NC(=O)c2cc3c(nc2Cl)nc(C(O)(c2ccccc2F)c2ccccc2F)n3CC)cn1` [Compound 101, 2-[bis(2-fluorophenyl)(hydroxy)methyl]-5-chloro-1-ethyl-N-(1-ethyl-1H-pyrazol-4-yl)-1H-imidazo[4,5-b]pyridine-6-carboxamide], for which the IC50 on human rec ACSS2 lay within 1 to 10 nM; on ACSS2 it was 0.01 to 1 nM.
For `CCn1cnc(NC(=O)c2cc3c(nc2C)nc(C(O)(c2ccccc2F)c2ccc(OC(F)F)cc2F)n3CC)n1` (single isomer, unassigned) [Compound 96], in that order: 1 to 10 nM and 10 to 100 nM.
With `CCn1cnc(NC(=O)c2cc3c(nc2OC)nc(C(O)(c2ccccc2)c2ccc(OC(F)F)cc2)n3CC)n1` (single isomer, unassigned) [Compound 72], the concentration for half-maximal inhibition (IC50) on human rec ACSS2 is 1 to 10 nM; on ACSS2 it was 0.01 to 1 nM.
`CCn1ncc(NC(=O)c2cc3c(nc2OC)nc(C(O)(c2ccccc2)c2ccccc2)n3CC)n1` [Compound 58, 1-ethyl-N-(2-ethyl-2H-1,20,3-triazol-4-yl)-2-(hydroxydiphenylmethyl)-5-methoxy-1H-imidazo[4,5-b]pyridine-6-carboxamide]: the IC50 on human rec ACSS2 and against ACSS2 was 10 to 100 nM each time.
On to `CCn1cnc(NC(=O)c2cc3c(nc2C)nc(C(O)(c2ccccc2F)c2ccc(OC(F)F)cc2F)n3CC)n1` (racemic) [Compound 97, 2-{[4-(difluoromethoxy)-2-fluorophenyl](2-fluorophenyl)hydroxymethyl}-1-ethyl-N-(1-ethyl-1H-1,2,4-triazol-3-yl)-5-methyl-1H-imidazo[4,5-b]pyridine-6-carboxamide], for which the 50% inhibitory concentration (IC50) fell in the range of 1 to 10 nM at human rec ACSS2 and 10 to 100 nM at ACSS2.
Consider `CCn1c(C(O)(c2ccccc2)c2ccccc2)nc2nc(OC)c(C(=O)Nc3cnn(CCOC)c3)cc21` [Compound 70, 1-ethyl-2-(hydroxydiphenylmethyl)-5-methoxy-N-[1-(2-methoxyethyl)-1H-pyrazol-4-yl]-1H-imidazo[4,5-b]pyridine-6-carboxamide], for which the IC50 on human rec ACSS2 and against ACSS2 was 10 to 100 nM throughout.
For `CCn1cc(NC(=O)c2cc3c(nc2OC)nc(C(O)(c2ccccc2)c2ccc(OC(F)F)cc2)n3CC)cn1` (racemic) [Compound 80, 2-{[4-(difluoromethoxy)phenyl](hydroxy)phenylmethyl}-1-ethyl-N-(1-ethyl-1H-pyrazol-4-yl)-5-methoxy-1H-imidazo[4,5-b]pyridine-6-carboxamide], the 50% inhibitory concentration (IC50) on human rec ACSS2 and at ACSS2 was 10 to 100 nM each time.
`CCn1ccc(NC(=O)c2cc3c(nc2OC)nc(C(O)(c2ccccc2)c2ccccc2)n3CC)n1` [Compound 77, 1-ethyl-N-(1-ethyl-1H-pyrazol-3-yl)-2-(hydroxydiphenylmethyl)-5-methoxy-1H-imidazo[4,5-b]pyridine-6-carboxamide]: the half-inhibitory concentration (IC50) at human rec ACSS2 and against ACSS2 was 1 to 10 nM in each case.
For the compound `CCn1cnc(NC(=O)c2cc3c(nc2C)nc(C(O)(c2ccccc2F)c2ccccc2F)n3CC)n1` [Compound 106, 2-[bis(2-fluorophenyl)(hydroxy)methyl]-1-ethyl-N-(1-ethyl-1H-1,2,4-triazol-3-yl)-5-methyl-1H-imidazo[4,5-b]pyridine-6-carboxamide], the half-maximal inhibitory concentration (IC50) at human rec ACSS2 and at ACSS2 was 1 to 10 nM each time.
As for `CCn1cnc(NC(=O)c2cc3c(nc2OC)nc(C(O)(c2ccccc2)c2cnn(C)c2)n3CC)n1` (racemic) [Compound 48, 1-ethyl-N-(1-ethyl-1H-1,2,4-triazol-3-yl)-2-[hydroxy(1-methyl-1H-pyrazol-4-yl)phenylmethyl]-5-methoxy-1H-imidazo[4,5-b]pyridine-6-carboxamide], the concentration for half-maximal inhibition (IC50) on human rec ACSS2 and against ACSS2 was 100 to 10000 nM throughout.

Usually IC50 stands for the point on the concentration scale where inhibition reaches its midpoint.
